# Experimental data published in the supplement of paper PMC11061612.
# Columns and labels:
# Test in all cases: combination Emax (second highest fraction inhibited in the dose matrix, 72 h); higher = more inhibition; extreme values may be limits of the assay
# [1] = test system: 697 (B-Lymphoblastic Leukemia)
# Outline: (§1)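 Bliss excess equals the observed combination effect minus the expected value EA + EB − EA·EB, where EA and EB are the effects of each agent alone. Combination Emax is the second-highest inhibition within the matrix. Inhibition was scaled from CellTiter-Glo 2.0 luminescence, with 0 set by vehicle wells and 1 by blank wells, after 72 hours of two-drug dosing of cells plated in 1536-well plates.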
# [2] = test system: C3A (Hepatocellular Carcinoma)
# Outline: as §1
# [3] = test system: CFPAC-1 (Pancreatic Carcinoma)
# Outline: as §1
# [4] = test system: COR-L23 (Non-Small Cell Lung Carcinoma)
# Outline: as §1
# [5] = test system: DMS-273 (Small Cell Lung Carcinoma)
# Outline: as §1
# [6] = test system: HCC2157 (Breast Carcinoma)
# Outline: as §1
# [7] = test system: IHH-4 (Thyroid Gland Carcinoma)
# Outline: as §1
# [8] = test system: J82 (Bladder Carcinoma)
# Outline: as §1
# [9] = test system: LU-99A (Non-Small Cell Lung Carcinoma)
# Outline: as §1
# [10] = test system: MDA-MB-231 (Breast Carcinoma)
# Outline: as §1
# [11] = test system: MFH-ino (Other Solid Carcinomas)
# Outline: as §1
# [12] = test system: NALM-6 (B-Lymphoblastic Leukemia)
# Outline: as §1
# [13] = test system: NCI-H1299 (Non-Small Cell Lung Carcinoma)
# Outline: as §1
# [14] = test system: NCI-H1781 (Lung Adenocarcinoma)
# Outline: as §1
# [15] = test system: OCI-AML2 (Acute Myeloid Leukemia)
# Outline: as §1
# [16] = test system: SK-N-FI (Neuroblastoma)
# Outline: as §1
# [17] = test system: SN12C (Kidney Carcinoma)
# Outline: as §1
# [18] = test system: SW1088 (Low Grade Glioma)
# Outline: as §1
# [19] = test system: SW1990 (Pancreatic Carcinoma)
# Outline: as §1
# [20] = test system: TGBC24TKB (Biliary Tract Carcinoma)
# Outline: as §1
SMILES,combination Emax [1],combination Emax [2],combination Emax [3],combination Emax [4],combination Emax [5],combination Emax [6],combination Emax [7],combination Emax [8],combination Emax [9],combination Emax [10],combination Emax [11],combination Emax [12],combination Emax [13],combination Emax [14],combination Emax [15],combination Emax [16],combination Emax [17],combination Emax [18],combination Emax [19],combination Emax [20]
"NC1(C(=O)N[C@@H](CCO)c2ccc(Cl)cc2)CCN(c2ncnc3[nH]ccc23)CC1 [Capivasertib] + CC(=O)c1c(C)c2cnc(Nc3ccc(N4CCNCC4)cn3)nc2n(C2CCCC2)c1=O [Palbociclib] (first compound max 10 µM, 7x7, partner max 10 µM)",0.838,0.556,0.519,0.442,0.817,1,0.618,0.452,0.502,0.577,0.483,0.858,0.465,0.479,0.804,0.413,0.17,0.654,0.214,0.556
"CCN(CCO)CCCOc1ccc2c(Nc3cc(CC(=O)Nc4cccc(F)c4)[nH]n3)ncnc2c1 [AZD2811] + C[C@@H]1COCCN1C2=NC(=NC(=C2)C3(CC3)[S@](=N)(=O)C)C4=C5C=CNC5=NC=C4 [AZD6738] (first compound max 1 µM, 7x7, partner max 10 µM)",1,0.464,0.399,0.511,0.771,0.918,0.763,0.184,0.659,0.667,0.529,0.957,0.642,0.775,0.984,0.687,0.212,0.566,0.513,0.746
"CN(CCO)CC[C@H](CSc1ccccc1)Nc1ccc(S(=O)(=O)NC(=O)c2ccc(N3CCC([C@@H](O)c4ccccc4-c4ccc(Cl)cc4)CC3)cc2)cc1S(=O)(=O)C(F)(F)F [AZD4320] + Cc1cc2ncnn2cc1Nc1ncc2c(n1)n(C1CCOCC1)c(=O)n2C [AZD7648] (first compound max 1 µM, 7x7, partner max 10 µM)",1,0.248,0.134,0.0958,0.398,0.959,0.193,0.0607,0.447,0.637,0.161,0.975,0.268,0.258,1,0.201,0.145,0.332,0.0867,0.682
"Cc1c2c(nn1C)CSCc1cc(n(C)n1)CSc1cc(c3ccccc3c1)OCCCc1c(C(=O)O)n(C)c3c-2c(Cl)ccc13 [AZD5991] + CCN(CCO)CCCOc1ccc2c(Nc3cc(CC(=O)Nc4cccc(F)c4)[nH]n3)ncnc2c1 [AZD2811] (first compound max 1 µM, 7x7, partner max 1 µM)",1,0.32,0.256,0.201,0.993,0.985,0.404,0.192,0.37,0.321,0.251,0.655,0.406,0.875,1,0.335,0.387,0.494,0.298,0.543
"C[C@@H](c1ccc2nccn2c1)n1nnc2ncc(-c3cnn(C)c3)nc21 [Savolitinib] + CC1(C)CCC(CN2CCN(c3ccc(C(=O)NS(=O)(=O)c4ccc(NCC5CCOCC5)c([N+](=O)[O-])c4)c(Oc4cnc5[nH]ccc5c4)c3)CC2)=C(c2ccc(Cl)cc2)C1 [Venetoclax] (first compound max 1 µM, 7x7, partner max 1 µM)",1,0.148,0.0889,0.111,0.239,0.186,0.0656,0.145,0.0525,0.306,0.171,0.316,0.14,0.208,0.93,0.192,0.219,0.224,0.225,0.215
"CC1(C)CCC(CN2CCN(c3ccc(C(=O)NS(=O)(=O)c4ccc(NCC5CCOCC5)c([N+](=O)[O-])c4)c(Oc4cnc5[nH]ccc5c4)c3)CC2)=C(c2ccc(Cl)cc2)C1 [Venetoclax] + C=CCn1c(=O)c2cnc(Nc3ccc(N4CCN(C)CC4)cc3)nc2n1-c1cccc(C(C)(C)O)n1 [AZD1775] (first compound max 1 µM, partner max 1 µM)",1,0.572,0.495,0.602,0.749,0.782,0.711,0.177,0.463,0.481,0.184,1,0.641,0.449,1,0.713,0.381,0.648,0.783,0.52
"COc1cccc(OCCCN)c1-c1cc(Nc2cnc(C#N)cn2)n[nH]1 [Prexasertib] + CCc1c2c(nc3ccc(O)cc13)-c1cc3c(c(=O)n1C2)COC(=O)[C@]3(O)CC [SN-38] (first compound max 1 µM, 7x7, partner max 0.3 µM)",1,0.649,0.841,0.852,0.997,1,0.965,0.894,0.798,0.978,0.704,0.983,0.79,0.993,1,0.886,0.76,0.849,0.741,0.852
"Cc1cc2ncnn2cc1Nc1ncc2c(n1)n(C1CCOCC1)c(=O)n2C [AZD7648] + O=C(c1cc(Cc2n[nH]c(=O)c3ccccc23)ccc1F)N1CCN(C(=O)C2CC2)CC1 [Olaparib] (first compound max 10 µM, 7x7, partner max 10 µM)",0.988,0.232,0.197,0.212,0.553,0.413,0.219,0.351,0.55,0.266,0.262,0.513,0.249,0.413,0.723,0.213,0.138,0.303,0.11,0.276
"NC1(C(=O)N[C@@H](CCO)c2ccc(Cl)cc2)CCN(c2ncnc3[nH]ccc23)CC1 [Capivasertib] + Cn1cnc2c(F)c(Nc3ccc(Br)cc3Cl)c(C(=O)NOCCO)cc21 [Selumetinib] (first compound max 10 µM, 7x7, partner max 10 µM)",0.617,0.603,0.491,0.609,0.837,1,0.607,0.413,0.709,0.751,0.556,0.697,0.615,0.695,1,0.614,0.352,0.618,0.368,0.556
"Cc1cc2ncnn2cc1Nc1ncc2c(n1)n(C1CCOCC1)c(=O)n2C [AZD7648] + C[C@@H]1COCCN1C2=NC(=NC(=C2)C3(CC3)[S@](=N)(=O)C)C4=C5C=CNC5=NC=C4 [AZD6738] (first compound max 10 µM, 7x7, partner max 10 µM)",1,0.548,0.356,0.577,0.788,0.842,0.756,0.31,0.681,0.605,0.499,0.932,0.644,0.443,0.986,0.71,0.313,0.671,0.471,0.786
"CC(=O)c1c(C)c2cnc(Nc3ccc(N4CCNCC4)cn3)nc2n(C2CCCC2)c1=O [Palbociclib] + CC1(C)CCC(CN2CCN(c3ccc(C(=O)NS(=O)(=O)c4ccc(NCC5CCOCC5)c([N+](=O)[O-])c4)c(Oc4cnc5[nH]ccc5c4)c3)CC2)=C(c2ccc(Cl)cc2)C1 [Venetoclax] (first compound max 10 µM, 7x7, partner max 1 µM)",1,0.447,0.311,0.106,0.351,0.601,0.393,0.237,0.319,0.408,0.219,0.933,0.326,0.118,1,0.213,0.0441,0.429,0.143,0.274
"Cc1c2c(nn1C)CSCc1cc(n(C)n1)CSc1cc(c3ccccc3c1)OCCCc1c(C(=O)O)n(C)c3c-2c(Cl)ccc13 [AZD5991] + Cc1cc2ncnn2cc1Nc1ncc2c(n1)n(C1CCOCC1)c(=O)n2C [AZD7648] (first compound max 1 µM, 7x7, partner max 10 µM)",1,0.248,0.259,0.131,0.988,0.984,0.35,0.187,0.414,0.333,0.348,0.471,0.34,0.515,0.967,0.414,0.269,0.423,0.218,0.243
